Measured values reported in publication PMC12207590, “Substrate Specificity of the Organic Cation Transporters MATE1 and MATE2K and Functional Overlap with OCT1 and OCT2” (Journal of Medicinal Chemistry, 2025).
Like-named read-outs stand apart in the source and are kept apart here.

How the values were obtained:
[1] = test system: MATE1, MATE2K, OCT1, OCT2; experiment: Substrate specificity and overlap among the four transporters (ratio cutoff 2); format: cell-based, human; settings: transport ratio cutoff of 2
hCMEC [2] = experiment: TS MDAI hCMEC (Table S2); format: cell-based, human; parameters: scale not given here
hCMEC [3] = experiment: TS DPH hCMEC (Table S2); format: cell-based, human; parameters: scale not given here
MATE2K [4] = molecular target: T1, MATE2K (Homo sapiens, UniProt Q86VL8); experiment: Concentration-dependent uptake (Michaelis-Menten) via MATE2K in HEK293 cells; settings: for Km: read-out: MATE2K KM
[5] = cited from earlier work
MATE1 [6] = molecular target: T2, MATE1 (Homo sapiens, UniProt Q96FL8); experiment: Concentration-dependent uptake (Michaelis-Menten) via MATE1 in HEK293 cells; settings: for Km: read-out: MATE1 KM
T2 sequence (Q96FL8 1-570): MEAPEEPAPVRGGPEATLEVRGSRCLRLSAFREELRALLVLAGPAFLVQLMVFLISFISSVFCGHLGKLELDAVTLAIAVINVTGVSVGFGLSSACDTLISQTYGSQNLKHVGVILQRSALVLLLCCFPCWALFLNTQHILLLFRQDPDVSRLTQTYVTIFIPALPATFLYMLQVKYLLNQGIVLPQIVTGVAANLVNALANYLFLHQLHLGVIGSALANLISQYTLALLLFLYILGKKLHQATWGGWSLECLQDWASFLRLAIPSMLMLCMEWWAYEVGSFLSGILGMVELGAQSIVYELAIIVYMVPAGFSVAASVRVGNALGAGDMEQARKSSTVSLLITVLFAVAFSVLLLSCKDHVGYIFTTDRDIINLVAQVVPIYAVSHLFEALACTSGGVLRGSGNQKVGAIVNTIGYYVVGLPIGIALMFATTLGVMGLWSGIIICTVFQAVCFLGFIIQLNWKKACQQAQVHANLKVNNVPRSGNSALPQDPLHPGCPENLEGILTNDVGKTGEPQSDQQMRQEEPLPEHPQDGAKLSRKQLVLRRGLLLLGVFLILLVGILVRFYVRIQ

MATE1 [7] = molecular target: T2, MATE1; experiment: Uptake ratio in MATE1-overexpressing HEK293 cells vs empty vector (2.5 μM, 1 min, HPLC-MS/MS); format: cell-based; settings: for MATE1 (uptake ratio): mean ratio of uptake in MATE1-overexpressing HEK293 cells vs empty vector
MATE2K [8] = molecular target: T1, MATE2K; experiment: Uptake ratio in MATE2K-overexpressing HEK293 cells vs empty vector (2.5 μM, 1 min, HPLC-MS/MS); format: cell-based; settings: for MATE2K ratio: fold uptake over empty vector; for MATE2 (uptake ratio): mean ratio of uptake in MATE2K-overexpressing HEK293 cells vs empty vector
[9] = fold uptake over empty vector, 2.5 μM, 1 min

T1 sequence (Q86VL8 1-566 isoform Q86VL8-3): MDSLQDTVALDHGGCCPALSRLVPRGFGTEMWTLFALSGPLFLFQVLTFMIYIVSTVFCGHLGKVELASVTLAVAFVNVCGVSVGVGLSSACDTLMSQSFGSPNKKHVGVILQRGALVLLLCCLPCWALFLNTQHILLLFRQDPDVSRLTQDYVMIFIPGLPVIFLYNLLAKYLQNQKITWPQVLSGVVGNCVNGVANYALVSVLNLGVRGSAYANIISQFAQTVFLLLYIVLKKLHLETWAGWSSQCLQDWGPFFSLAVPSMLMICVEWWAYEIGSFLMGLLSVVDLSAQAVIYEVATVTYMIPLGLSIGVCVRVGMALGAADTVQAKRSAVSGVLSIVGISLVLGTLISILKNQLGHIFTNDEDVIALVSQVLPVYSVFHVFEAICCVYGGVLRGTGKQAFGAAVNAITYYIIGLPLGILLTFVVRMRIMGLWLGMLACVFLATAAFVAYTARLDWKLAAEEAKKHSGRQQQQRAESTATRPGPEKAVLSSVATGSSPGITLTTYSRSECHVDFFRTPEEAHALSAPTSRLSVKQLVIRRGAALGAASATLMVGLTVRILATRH

SMILES: COC(=O)C(c1ccccc1)C1CCCCN1 (stereo not shown) [Methylphenidate]
- Substrate specificity among MATE1, MATE2K, OCT1, OCT2 [1]: OCT2 only
- TS MDAI hCMEC (hCMEC [2]): 0.24
- TS DPH hCMEC (hCMEC [3]): 0.33

SMILES: CCN1CCCC1CNC(=O)c1cc(S(N)(=O)=O)ccc1OC (stereo not shown) [Sulpiride]
- MATE2K Vmax (MATE2K [4]): 1025 pmol × mg protein^–1 × min^–1
- Km (MATE2K [4]; HEK293, 1 min, net uptake): 22.8 µM
- eliminated unchanged via the kidneys ([5]; in vivo): more than 70%
- MATE1 Vmax (MATE1 [6]): 851 pmol × mg protein^–1 × min^–1
- Km (MATE1 [6]; HEK293, 1 min, net uptake): 16 µM

SMILES: NC(N)=Nc1nc(CSCCC(N)=NS(N)(=O)=O)cs1 [Famotidine]
- eliminated unchanged via the kidneys ([5]; human): more than 70%

SMILES: CC(C)NCC(O)c1ccc(NS(C)(=O)=O)cc1 (stereo not shown) [Sotalol]
- MATE1 ratio (MATE1 [7]; [9]): 19.70
- MATE1 ratio (MATE1 [7]; fold uptake over empty vector, 2.5 μM, 1 min, listed as sotalol): above 2
- MATE1 (MATE1 [7]; uptake ratio MATE1-overexpressing vs empty-vector HEK293 cells, 2.5 μM, 1 min, mean): 19.7
- eliminated unchanged via the kidneys ([5]; human): more than 70%
- MATE2K ratio (MATE2K [8]; 2.5 μM, 1 min): 1.62
- MATE2 (MATE2K [8]; uptake ratio MATE2K-overexpressing vs empty-vector HEK293 cells, 2.5 μM, 1 min, mean): 1.62

SMILES: C=CCN1CCCC1CNC(=O)c1cc2nn[nH]c2cc1OC (stereo not shown) [Alizapride]
- MATE1 ratio (MATE1 [7]; [9]): 3.68
- MATE1 ratio (MATE1 [7]; fold uptake over empty vector, 2.5 μM, 1 min, listed as alizapride): above 2
- MATE1 (uptake ratio) (MATE1 [7]; 2.5 μM, 1 min): 3.68
- eliminated unchanged via the kidneys ([5]; human): more than 70%
- MATE2K ratio (MATE2K [8]; 2.5 μM, 1 min): 2.64
- MATE2 (uptake ratio) (MATE2K [8]; 2.5 μM, 1 min): 2.64

SMILES: C[C@H]1N=C(N(C)C)N=C(N)N1 [Imeglimin]
- MATE2K Vmax (MATE2K [4]; HEK293, 1 min, net uptake): 2814 pmol × mg protein^–1 × min^–1
- Km (MATE2K [4]; HEK293, 1 min, net uptake): 81.6 µM
- MATE1 ratio in this study (MATE1 [7]; Table S1, 2.5 μM, 1 min): 18.76
- MATE1 ratio (MATE1 [7]; [9]): 18.76
- MATE1 ratio (MATE1 [7]; fold uptake over empty vector, 2.5 μM, 1 min, listed as imeglimin): above 2
- eliminated unchanged via the kidneys ([5]; human): more than 70%
- MATE2K ratio in this study (MATE2K [8]; Table S1, 2.5 μM, 1 min): 4.59
- MATE2K ratio (MATE2K [8]; 2.5 μM, 1 min): 4.59
- MATE1 Vmax (MATE1 [6]; HEK293, 1 min, net uptake): 6242 pmol × mg protein^–1 × min^–1
- Km (MATE1 [6]; HEK293, 1 min, net uptake): 58 µM

SMILES: CC[N+](C)(C)c1cccc(O)c1 [Edrophonium]
- MATE1 ratio (MATE1 [7]; [9]): 30.33
- MATE1 ratio (MATE1 [7]; fold uptake over empty vector, 2.5 μM, 1 min, listed as edrophonium): above 2
- eliminated unchanged via the kidneys ([5]; in vivo): more than 70%
- MATE2K ratio (MATE2K [8]; 2.5 μM, 1 min): 10.98

SMILES: C[C@H](N)[C@@H](O)c1ccccc1 [Cathine]
- Substrate specificity among MATE1, MATE2K, OCT1, OCT2 [1]: OCT2 only
- TS DPH hCMEC (hCMEC [3]): 0.35

SMILES: COc1cc(C(O)CN)ccc1O (stereo not shown) [Normetanephrine]
- Substrate specificity among MATE1, MATE2K, OCT1, OCT2 [1]: OCT1 only
- MATE1 ratio (MATE1 [7]; [9]): 1.80
- MATE2K ratio (MATE2K [8]; 2.5 μM, 1 min): 0.82

SMILES: Nc1ccncc1N [Amifampridine]
- MATE1 ratio (MATE1 [7]; [9]): 17.06
- MATE1 ratio (MATE1 [7]; fold uptake over empty vector, 2.5 μM, 1 min, listed as amifampridine): above 2
- MATE1 (uptake ratio) (MATE1 [7]; 2.5 μM, 1 min): 17.06
- eliminated unchanged via the kidneys ([5]; human): more than 70%
- MATE2K ratio (MATE2K [8]; 2.5 μM, 1 min): 7.01
- MATE2 (uptake ratio) (MATE2K [8]; 2.5 μM, 1 min): 7.01

SMILES: CC[N+](CC)(CC)CC(=O)Nc1c(C)cccc1C [N-Ethyl-lidocaine]
- Substrate specificity among MATE1, MATE2K, OCT1, OCT2 [1]: All four transporters
- MATE1 ratio (MATE1 [7]; [9]): 36.39
- MATE2K ratio (MATE2K [8]; 2.5 μM, 1 min): 14.68

SMILES: O=C(O[C@H]1C[C@H]2CC[C@@H](C1)[N+]21CCCC1)C(O)(c1ccccc1)c1ccccc1 [Trospium]
- MATE1 (MATE1 [7]): 21.28
- MATE1 ratio (MATE1 [7]): above 2
- MATE1 ratio in this study (MATE1 [7]): 21.28
- eliminated unchanged via the kidneys ([5]; human): more than 70%
- MATE2 (MATE2K [8]): 5.18
- MATE2K ratio in this study (MATE2K [8]): 5.18
